Experimental findings from patent US9555039B2, “Piperidine derivatives and compositions for the inhibition of nicotinamide phosphoribosyltransferase (NAMPT)” (Forma TM, LLC., priority 2011, dated 2017) are described below.

In assay [1] the target is T1, Recombinant His-tagged NAMPT (Homo sapiens, UniProt P43490).
T1 construct: His; host or cells: E. coli
Put plainly: Biochemical inhibition assay: NAMPT enzymatic reaction, NMN quantified by mass spectrometry. The note with it: 33 nM NAMPT, 1 μM NAM, 100 μM PRPP, 2.5 mM ATP, 30 minutes at room temperature; read-out: Biochem IC50. The method, then:
Biochemical Inhibition Assay
NAMPT Protein Purification
Recombinant His-tagged NAMPT was produced in E. coli cells, purified over a Ni column, and further purified over a size-exclusion column by XTAL Biostructures.
The NAMPT Enzymatic Reaction
The NAMPT enzymatic reactions were carried out in Buffer A (50 mM Hepes pH 7.5, 50 mM NaCl, 5 mM MgCl2, and 1 mM THP) in 96-well V-bottom plates. The compound titrations were performed in a separate dilution plate by serially diluting the compounds in DMSO to make a 100× stock. […] The compound and enzyme mix was incubated for 15 minutes at room temperature, then 10 μL of 10× substrate and co-factors in Buffer A were added to the test well to make a final concentration of 1 μM NAM, 100 μM 5-Phospho-D-ribose 1-diphosphate (PRPP), and 2.5 mM Adenosine 5′-triphosphate (ATP). The reaction was allowed to proceed for 30 minutes at room temperature, then was quenched with the addition of 11 μL of a solution of formic acid and L-Cystathionine to make a final concentration of 1% formic acid and 10 μM L-Cystathionine. Background and signal strength was determined by addition (or non-addition) of a serial dilution of NMN to a pre-quenched enzyme and cofactor mix.
A mass spectrometry-based assay was used to measure the Nampt reaction product (NMN) and the internal control (L-Cystathionine). NMN and L-Cystathionine were detected using the services of Biocius Lifesciences with the RapidFire system. In short, the NMN and L-Cystathionine are bound to a graphitic carbon cartridge in 0.1% formic acid, eluted in 30% acetonitrile buffer, and injected into a Sciex 4000 mass spectrometer. The components of the sample were ionized with electrospray ionization and the positive ions were detected. […] The fragments are quantified and the analyzed by the following method.
First the NMN signal is normalized to the L-Cystathionine signal by dividing the NMN signal by the L-Cystathionine signal for each well. The signal from the background wells are averaged and subtracted from the test plates.
Wherein x denotes the average signal of the compound treated wells and y denotes the average signal of the DMSO treated wells.
IC50s are Determined Using Excel and this Formula.
Wherein X denotes the compound concentration 1, Y denotes the compound concentration 2, XX denotes the % inhibition at compound concentration 1 (X), and YY denotes the % inhibition at compound concentration 2 (Y).

Assay [2] has as its system A2780 cells. Nature of the assay: In-vitro cell proliferation assay (SRB, 72 hours). It is filed as cell-based. The following applies: Homo sapiens, sulforhodamine B (SRB) assay. As for the experimental part:
In-Vitro Cell Proliferation Assay
After overnight incubation at 37° C. and 5% CO2, the compound titrations were performed in a separate dilution plate by serially diluting the compounds in DMSO to make a 1000× stock. The compounds were then further diluted to 10× final concentration in culture media, whereupon 20 μL of each dilution was added to the plated cells with controls (e.g. DMSO and blank) to make a final volume of 200 μL. The final DMSO concentration in each well was 0.1%. The plates were then incubated for 72 hours at 37° C. in a 5% CO2 incubator. The number of viable cells was then assessed using sulforhodamine B (SRB) assay. Cells were fixed at 4° C. for 1 hour with the addition of 50 μL 30% trichloroacetic acid (TCA) to make a final concentration of 6% TCA. The plates were washed four times with H2O and allowed to dry for at least 1 hour, whereupon 100 μL of a 4% SRB in 1% acetic acid solution was added to each well and incubated at room temperature for at least 30 minutes. The plates were then washed three times with 1% acetic acid, dried, and treated with 100 μL of 10 mM Tris-Base solution. The plates were then read in a microplate reader at an absorbance of 570 nm. Background was generated on a separate plate with media only.
Method for Determining % Inhibition
First, the signals from the background plate are averaged, then the background was subtracted from the test plates.
wherein x denotes the average signal of the compound-treated cells and y denotes the average signal of the DMSO-treated cells.
wherein X denotes the compound concentration 1, Y denotes the compound concentration 2, XX denotes the % inhibition at compound concentration 1 (X), and YY denotes the % inhibition at compound concentration 2 (Y).

T1 sequence (P43490 whole entry): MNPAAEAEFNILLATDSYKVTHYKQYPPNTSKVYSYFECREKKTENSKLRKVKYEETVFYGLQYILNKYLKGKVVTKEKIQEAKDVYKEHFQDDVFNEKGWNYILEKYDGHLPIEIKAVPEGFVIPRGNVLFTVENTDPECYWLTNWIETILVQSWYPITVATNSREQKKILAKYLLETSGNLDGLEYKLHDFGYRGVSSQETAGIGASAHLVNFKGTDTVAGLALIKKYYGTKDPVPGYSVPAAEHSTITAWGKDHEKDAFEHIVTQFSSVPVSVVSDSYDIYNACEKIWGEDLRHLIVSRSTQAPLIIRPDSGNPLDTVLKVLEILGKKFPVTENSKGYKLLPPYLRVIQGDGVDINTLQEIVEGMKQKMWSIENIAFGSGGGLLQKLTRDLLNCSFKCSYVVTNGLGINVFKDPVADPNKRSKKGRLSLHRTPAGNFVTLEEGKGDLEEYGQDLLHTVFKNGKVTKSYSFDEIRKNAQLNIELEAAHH

For orientation: IC50 means the point on the concentration scale where inhibition reaches its midpoint. Consider `O=C(NCCCCC1CCN(C(=O)c2cccc(Cl)c2)CC1)c1ccc2nccn2c1` [N-(4-{1-[(3-chlorophenyl)carbonyl]piperidin-4-yl}butyl)imidazo[1,2-a]pyridine-6-carboxamide], for which the IC50 in assay [1] amounted to 17.1 nM; in assay [2] it was 22.3 nM.

As to `O=C(NCCCCC1CCN(S(=O)(=O)c2ccccc2)CC1)c1cc2cnccc2[nH]1` [N-{4-[1-(benzenesulfonyl)piperidin-4-yl]butyl}-1H-pyrrolo[3,2-c]pyridine-2-carboxamide], the IC50 in assay [1] worked out at 24.9 nM; in assay [2], 6.7 nM.

Regarding `CCOc1ccccc1C(=O)N1CCC(CCCCNC(=O)c2cc3cnccc3[nH]2)CC1` [N-(4-{1-[(2-ethoxyphenyl)carbonyl]piperidin-4-yl}butyl)-1H-pyrrolo[3,2-c]pyridine-2-carboxamide], the IC50 amounted to 30.5 nM in assay [1] and 0.5 nM in assay [2].

In the case of `COc1ccc(C(=O)N2CCC(CCCCNC(=O)c3ccc4nccn4c3)CC2)cc1OC` [N-(4-{1-[(3,4-dimethoxyphenyl)carbonyl]piperidin-4-yl}butyl)imidazo[1,2-a]pyridine-6-carboxamide], the IC50 came to 38.5 nM in assay [1] and 2.9 nM in assay [2].

As to `O=C(NCCCCC1CCN(C(=O)c2csc(-c3cccnc3)n2)CC1)c1ccc2nccn2c1` [N-[4-(1-{[2-(pyridin-3-yl)-1,3-thiazol-4-yl]carbonyl}piperidin-4-yl)butyl]imidazo[1,2-a]pyridine-6-carboxamide], the figures for the IC50 in assay [1] and in assay [2] were 61.1 nM and 67 nM, respectively.

For `Cc1cnc(C(=O)N2CCC(CCCCNC(=O)c3cc4ccncc4s3)CC2)cn1` [N-(4-{1-[(5-methylpyrazin-2-yl)carbonyl]piperidin-4-yl}butyl)thieno[2,3-c]pyridine-2-carboxamide], the IC50 is 68.5 nM in assay [1] and 100 to 1000 nM in assay [2].

Regarding `COc1cc(Cl)ccc1C(=O)N1CCC(CCCCNC(=O)c2cc3cnccc3[nH]2)CC1` [N-(4-{1-[(4-chloro-2-methoxyphenyl)carbonyl]piperidin-4-yl}butyl)-1H-pyrrolo[3,2-c]pyridine-2-carboxamide], the IC50 in assay [1] came to 62.1 nM; in assay [2], 6.1 nM.

As to `O=C(NCCCCC1CCN(C(=O)c2cccc(F)c2)CC1)c1cc2ccncc2s1` [N-(4-{1-[(3-fluorophenyl)carbonyl]piperidin-4-yl}butyl)thieno[2,3-c]pyridine-2-carboxamide], the IC50 in assay [1] turned out to be 7.7 nM; in assay [2] it was 7.4 nM.

Regarding `O=C(NCCCCC1CCN(C(=O)c2cc3ccccc3[nH]2)CC1)c1ccc2nccn2c1` [N-(4-{1-[(1H-indol-2-yl)carbonyl]piperidin-4-yl}butyl)imidazo[1,2-a]pyridine-6-carboxamide], the results for the IC50 in assay [1] and in assay [2] were 61.6 nM and 100 to 1000 nM, respectively.

As for `COc1ccc(Cl)cc1C(=O)N1CCC(CCCCNC(=O)c2cc3ccncc3s2)CC1` [N-(4-{1-[(5-chloro-2-methoxyphenyl)carbonyl]piperidin-4-yl}butyl)thieno[2,3-c]pyridine-2-carboxamide], the IC50 in assay [1] came out at 14.1 nM; in assay [2], 3.3 nM.

As for `Cn1cnc(C(=O)N2CCC(CCCCNC(=O)c3ccc4nccn4c3)CC2)c1` [N-(4-{1-[(1-methyl-1H-imidazol-4-yl)carbonyl]piperidin-4-yl}butyl)imidazo[1,2-a]pyridine-6-carboxamide], the IC50 was determined as 56.7 nM in assay [1] and 107 nM in assay [2].

`O=C(NCCCCC1CCN(C(=O)c2ccc(OC(F)(F)F)cc2)CC1)c1ccc2nccn2c1` [N-[4-(1-{[4-(trifluoromethoxy)phenyl]carbonyl}piperidin-4-yl)butyl]imidazo[1,2-a]pyridine-6-carboxamide]: the results for the IC50 in assay [1] and in assay [2] were 91 nM and 100 to 1000 nM, respectively.

For `O=C(NCCCCC1CCN(C(=O)c2ccc(C(F)(F)F)nc2)CC1)c1ccc2nccn2c1` [N-[4-(1-{[6-(trifluoromethyl)pyridin-3-yl]carbonyl}piperidin-4-yl)butyl]imidazo[1,2-a]pyridine-6-carboxamide], the IC50 in assay [1] came out at 91.9 nM; in assay [2] it was 93 nM.

For the molecule `O=C(NCCCCC1CCN(C(=O)c2cnccc2C(F)(F)F)CC1)c1cc2cnccc2[nH]1` [N-[4-(1-{[4-(trifluoromethyl)pyridin-3-yl]carbonyl}piperidin-4-yl)butyl]-1H-pyrrolo[3,2-c]pyridine-2-carboxamide], the IC50 in assay [1] worked out at 39.8 nM; in assay [2], 2.9 nM.

Consider `COc1ccc(OC)c(C(=O)N2CCC(CCCCNC(=O)c3cc4cnccc4[nH]3)CC2)c1` [N-(4-{1-[(2,5-dimethoxyphenyl)carbonyl]piperidin-4-yl}butyl)-1H-pyrrolo[3,2-c]pyridine-2-carboxamide], for which the IC50 in assay [1] was 15.5 nM; in assay [2], 2.2 nM.

For the molecule `O=C(NCCCCC1CCN(C(=O)c2ccc(Cl)c(Cl)c2)CC1)c1cc2ccncc2s1` [N-(4-{1-[(3,4-dichlorophenyl)carbonyl]piperidin-4-yl}butyl)thieno[2,3-c]pyridine-2-carboxamide], the IC50 is 34.5 nM in assay [1] and 100 to 1000 nM in assay [2].

Turning to `O=C(NCCCCC1CCN(C(=O)c2csc(-c3cccnc3)n2)CC1)c1cc2ccncc2s1` [N-[4-(1-{[2-(pyridin-3-yl)-1,3-thiazol-4-yl]carbonyl}piperidin-4-yl)butyl]thieno[2,3-c]pyridine-2-carboxamide], the IC50 in assay [1] turned out to be 70.6 nM; in assay [2], 85.3 nM.

Turning to `Cc1cccc(C(=O)N2CCC(CCCCNC(=O)c3ccc4nccn4c3)CC2)c1F` [N-(4-{1-[(2-fluoro-3-methylphenyl)carbonyl]piperidin-4-yl}butyl)imidazo[1,2-a]pyridine-6-carboxamide], the results for the IC50 in assay [1] and in assay [2] were 22.6 nM and 12.7 nM, respectively.

Turning to `O=C(NCCCCC1CCN(C(=O)c2ccc(F)c(F)c2)CC1)c1cc2cnccc2[nH]1` [N-(4-{1-[(3,4-difluorophenyl)carbonyl]piperidin-4-yl}butyl)-1H-pyrrolo[3,2-c]pyridine-2-carboxamide], the IC50 was found to be 56 nM in assay [1] and 20.6 nM in assay [2].

Regarding `Cc1ncccc1C(=O)N1CCC(CCCCNC(=O)c2cc3cnccc3[nH]2)CC1` [N-(4-{1-[(2-methylpyridin-3-yl)carbonyl]piperidin-4-yl}butyl)-1H-pyrrolo[3,2-c]pyridine-2-carboxamide], the IC50 was found to be 21.5 nM in assay [1] and 1.7 nM in assay [2].

Regarding `Cc1c(F)cccc1C(=O)N1CCC(CCCCNC(=O)c2ccc3nccn3c2)CC1` [N-(4-{1-[(3-fluoro-2-methylphenyl)carbonyl]piperidin-4-yl}butyl)imidazo[1,2-a]pyridine-6-carboxamide], the values for the IC50 in assay [1] and in assay [2] were 13.1 nM and 3.5 nM, respectively.

In the case of `O=C(NCCCCN1CCN(C(=O)c2cccc(Cl)c2)CC1)c1cc2cnccc2[nH]1` [N-(4-{4-[(3-chlorophenyl)carbonyl]piperazin-1-yl}butyl)-1H-pyrrolo[3,2-c]pyridine-2-carboxamide], the figures for the IC50 in assay [1] and in assay [2] were 106 nM and 347 nM, respectively.

On to `O=C(NCCCCC1CCN(C(=O)c2c(F)cccc2F)CC1)c1ccc2nccn2c1` [N-(4-{1-[(2,6-difluorophenyl)carbonyl]piperidin-4-yl}butyl)imidazo[1,2-a]pyridine-6-carboxamide], for which the IC50 in assay [1] is 4.7 nM; in assay [2], 1.2 nM.

Take `COc1ccc(OC)c(C(=O)N2CCC(CCCCNC(=O)c3ccc4nccn4c3)CC2)c1` [N-(4-{1-[(2,5-dimethoxyphenyl)carbonyl]piperidin-4-yl}butyl)imidazo[1,2-a]pyridine-6-carboxamide]: the IC50 worked out at 42.9 nM in assay [1] and 1.9 nM in assay [2].
